In patent US10040781B2, “Tank-binding kinase inhibitor compounds” (Gilead Sciences, Inc., priority 2014, dated 2018):

What was measured:
[1] = target: IKKε (Homo sapiens (Human), UniProt Q14164); experiment: IKKε TR-FRET enzymatic assay; format: biochemical; details: read-out: IKKe IC50
[2] = target: hJAK2 (Homo sapiens (Human), UniProt O60674); experiment: hJAK2 LANCE TR-FRET enzymatic assay; format: biochemical; details: read-out: JAK2 IC50
[3] = target: TBK1 (Homo sapiens (Human), UniProt Q9UHD2); experiment: TBK1 TR-FRET enzymatic assay;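 further: phosphorylation of a biotinylated Ser/Thr peptide by purified full-length recombinant TBK1, read by TR-FRET after 240 min at 25 °C, IC50 is the geometric mean of at least four runs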
TBK1, sequence (Q9UHD2 whole entry): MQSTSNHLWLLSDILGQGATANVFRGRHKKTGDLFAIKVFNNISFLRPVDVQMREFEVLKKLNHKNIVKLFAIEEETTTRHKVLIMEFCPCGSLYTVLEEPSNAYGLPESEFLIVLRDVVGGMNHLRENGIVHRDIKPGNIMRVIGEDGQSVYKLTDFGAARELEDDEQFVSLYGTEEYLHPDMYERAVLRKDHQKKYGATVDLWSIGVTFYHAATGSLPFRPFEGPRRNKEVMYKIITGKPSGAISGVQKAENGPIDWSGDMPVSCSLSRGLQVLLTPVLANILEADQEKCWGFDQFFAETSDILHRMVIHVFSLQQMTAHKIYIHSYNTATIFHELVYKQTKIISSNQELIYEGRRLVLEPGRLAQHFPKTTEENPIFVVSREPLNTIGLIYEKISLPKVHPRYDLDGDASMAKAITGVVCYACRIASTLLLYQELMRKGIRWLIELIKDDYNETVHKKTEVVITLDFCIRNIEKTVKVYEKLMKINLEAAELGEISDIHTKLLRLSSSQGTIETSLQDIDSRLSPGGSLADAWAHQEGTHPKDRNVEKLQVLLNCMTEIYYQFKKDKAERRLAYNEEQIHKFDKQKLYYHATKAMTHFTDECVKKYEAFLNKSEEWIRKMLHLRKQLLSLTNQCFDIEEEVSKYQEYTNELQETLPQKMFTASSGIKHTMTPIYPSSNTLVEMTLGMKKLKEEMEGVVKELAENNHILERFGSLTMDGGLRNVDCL

IKKε, sequence (Q14164 whole entry): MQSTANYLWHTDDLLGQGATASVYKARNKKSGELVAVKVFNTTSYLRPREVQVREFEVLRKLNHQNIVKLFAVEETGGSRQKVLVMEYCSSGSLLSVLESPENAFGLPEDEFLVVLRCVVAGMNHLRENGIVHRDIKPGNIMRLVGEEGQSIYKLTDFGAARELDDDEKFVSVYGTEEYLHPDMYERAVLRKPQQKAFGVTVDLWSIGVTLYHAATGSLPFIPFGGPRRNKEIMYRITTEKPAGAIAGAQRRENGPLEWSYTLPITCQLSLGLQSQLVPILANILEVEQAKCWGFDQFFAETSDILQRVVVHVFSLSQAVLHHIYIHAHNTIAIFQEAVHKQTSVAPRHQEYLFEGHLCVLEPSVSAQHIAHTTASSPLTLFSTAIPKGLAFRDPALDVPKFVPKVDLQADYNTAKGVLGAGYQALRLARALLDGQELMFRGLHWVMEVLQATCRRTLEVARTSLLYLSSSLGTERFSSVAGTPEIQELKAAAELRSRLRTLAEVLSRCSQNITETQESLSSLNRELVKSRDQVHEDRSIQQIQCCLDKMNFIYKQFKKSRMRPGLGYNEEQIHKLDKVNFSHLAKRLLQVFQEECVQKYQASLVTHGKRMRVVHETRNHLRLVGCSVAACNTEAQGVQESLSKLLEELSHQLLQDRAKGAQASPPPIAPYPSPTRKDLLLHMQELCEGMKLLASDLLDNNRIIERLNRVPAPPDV
hJAK2, sequence (O60674 whole entry): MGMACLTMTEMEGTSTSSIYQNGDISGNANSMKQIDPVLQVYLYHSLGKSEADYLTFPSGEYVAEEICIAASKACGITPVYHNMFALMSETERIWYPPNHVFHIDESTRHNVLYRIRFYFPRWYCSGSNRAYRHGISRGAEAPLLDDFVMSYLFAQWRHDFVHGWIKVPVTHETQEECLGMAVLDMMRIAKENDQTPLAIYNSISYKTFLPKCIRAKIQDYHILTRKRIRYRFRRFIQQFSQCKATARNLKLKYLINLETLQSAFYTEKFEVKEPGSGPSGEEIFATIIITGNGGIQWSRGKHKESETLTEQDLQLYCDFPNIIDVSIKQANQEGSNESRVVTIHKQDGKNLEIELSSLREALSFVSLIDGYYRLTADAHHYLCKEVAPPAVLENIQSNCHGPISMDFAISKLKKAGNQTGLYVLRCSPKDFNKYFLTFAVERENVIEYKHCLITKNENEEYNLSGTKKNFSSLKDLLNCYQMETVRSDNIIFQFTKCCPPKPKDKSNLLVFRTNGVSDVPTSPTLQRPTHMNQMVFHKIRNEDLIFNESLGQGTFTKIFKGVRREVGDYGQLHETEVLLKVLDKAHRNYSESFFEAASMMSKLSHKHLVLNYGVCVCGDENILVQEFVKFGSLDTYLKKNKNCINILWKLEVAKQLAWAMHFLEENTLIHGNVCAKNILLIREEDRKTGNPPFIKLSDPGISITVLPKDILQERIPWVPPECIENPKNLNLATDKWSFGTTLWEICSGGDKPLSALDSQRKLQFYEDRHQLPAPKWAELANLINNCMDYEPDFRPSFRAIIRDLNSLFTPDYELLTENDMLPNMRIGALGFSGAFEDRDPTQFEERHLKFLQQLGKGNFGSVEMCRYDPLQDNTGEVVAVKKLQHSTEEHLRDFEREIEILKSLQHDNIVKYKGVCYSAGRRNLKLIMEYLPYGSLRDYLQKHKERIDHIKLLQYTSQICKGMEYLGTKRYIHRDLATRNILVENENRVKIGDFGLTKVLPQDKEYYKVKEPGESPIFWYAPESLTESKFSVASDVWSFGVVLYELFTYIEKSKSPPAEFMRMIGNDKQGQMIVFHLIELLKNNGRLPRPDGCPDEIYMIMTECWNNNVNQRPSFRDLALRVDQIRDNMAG

In the case of `C[C@H](O)C(=O)N1CC[C@H](Oc2ccc(-c3ncnc(Nc4cnn(C(C)(C)C)c4)n3)cc2C#N)[C@H](F)C1` [Example 294, 5-(4-((1-(tert-butyl)-1H-pyrazol-4-yl)amino)-1,3,5-triazin-2-yl)-2-(((3R,4S)-3-fluoro-1-((S)-2-hydroxypropanoyl)piperidin-4-yl)oxy)benzonitrile], the IC50 [1] is reported as 5 nM, the IC50 [2] is reported as 228 nM and the IC50 [3] is reported as 4 nM.

Molecule `N#Cc1cc(-c2ncnc(Nc3ccc(N4CCNCC4)c(F)c3)n2)ccc1O[C@H]1CCN(C=O)C[C@H]1F` [Example 296, 2-(((3R,4S)-3-fluoro-1-formylpiperidin-4-yl)oxy)-5-(4-((3-fluoro-4-(piperazin-1-yl)phenyl)amino)-1,3,5-triazin-2-yl)benzonitrile] has an IC50 [1] of 1 nM, an IC50 [2] of 274 nM and an IC50 [3] of 3 nM.

Molecule `N#Cc1cc(-c2ncnc(Nc3ccc(N4CCN(C5COC5)CC4)cc3)n2)ccc1O[C@H]1CCOC[C@H]1F` [Example 297, 2-(((3R,4S)-3-fluorotetrahydro-2H-pyran-4-yl)oxy)-5-(4-((4-(4-(oxetan-3-yl)piperazin-1-yl)phenyl)amino)-1,3,5-triazin-2-yl)benzonitrile] has an IC50 [1] of 4 nM, an IC50 [2] of 397 nM and an IC50 [3] of 2 nM.

In the case of `N#Cc1cc(-c2ncnc(Nc3ccc(N4CCN(C=O)CC4)c(F)c3)n2)ccc1O[C@H]1CCOC[C@H]1F` [Example 299, 5-(4-((3-fluoro-4-(4-formylpiperazin-1-yl)phenyl)amino)-1,3,5-triazin-2-yl)-2-(((3R,4S)-3-fluorotetrahydro-2H-pyran-4-yl)oxy)benzonitrile], the IC50 [1] is reported as 8 nM, the IC50 [2] is reported as 401 nM and the IC50 [3] is reported as 4 nM.

`CN1CCC(c2ccc(Nc3ncnc(-c4ccc(O[C@H]5CCOC[C@H]5F)c(C#N)c4)n3)cc2)CC1` [Example 300, 2-(((3R,4S)-3-fluorotetrahydro-2H-pyran-4-yl)oxy)-5-(4-((4-(1-methylpiperidin-4-yl)phenyl)amino)-1,3,5-triazin-2-yl)benzonitrile] showed an IC50 [1] of 3 nM, an IC50 [2] of 453 nM and an IC50 [3] of 4 nM.

`N#Cc1cc(-c2ncnc(Nc3ccc(N4CCN(C5CCOCC5)CC4)c(F)c3)n2)ccc1O[C@H]1CCN(C(=O)CO)C[C@H]1F` [Example 307, 2-(((3R,4S)-3-fluoro-1-(2-hydroxyacetyl)piperidin-4-yl)oxy)-5-(4-((3-fluoro-4-(4-(tetrahydro-2H-pyran-4-yl)piperazin-1-yl)phenyl)amino)-1,3,5-triazin-2-yl)benzonitrile] gave an IC50 [1] of 1 nM, an IC50 [2] of 268 nM and an IC50 [3] of 3 nM.

`C[C@H](O)C(=O)N1CC[C@H](Oc2ccc(-c3ncnc(Nc4ccc(N5CCN(CC6COC6)CC5)cc4)n3)cc2C#N)[C@H](F)C1` [Example 308, 2-(((3R,4S)-3-fluoro-1-((S)-2-hydroxypropanoyl)piperidin-4-yl)oxy)-5-(4-((4-(4-(oxetan-3-ylmethyl)piperazin-1-yl)phenyl)amino)-1,3,5-triazin-2-yl)benzonitrile] gave an IC50 [1] of 1 nM, an IC50 [2] of 475 nM and an IC50 [3] of 2 nM.

`C[C@H](O)C(=O)N1CC[C@H](Oc2ccc(-c3ncnc(Nc4ccc(N5CCN(C6CCOCC6)CC5)cc4)n3)cc2C#N)[C@H](F)C1` [Example 309, 2-(((3R,4S)-3-fluoro-1-((S)-2-hydroxypropanoyl)piperidin-4-yl)oxy)-5-(4-((4-(4-(tetrahydro-2H-pyran-4-yl)piperazin-1-yl)phenyl)amino)-1,3,5-triazin-2-yl)benzonitrile] gave an IC50 [1] of 1 nM, an IC50 [2] of 423 nM and an IC50 [3] of 2 nM.

For `C[C@H](O)C(=O)N1CC[C@H](Oc2ccc(-c3ncnc(Nc4ccc(C5CCN(C6COC6)CC5)c(F)c4)n3)cc2C#N)[C@H](F)C1` [Example 310, 2-(((3R,4S)-3-fluoro-1-((S)-2-hydroxypropanoyl)piperidin-4-yl)oxy)-5-(4-((3-fluoro-4-(1-(oxetan-3-yl)piperidin-4-yl)phenyl)amino)-1,3,5-triazin-2-yl)benzonitrile], the IC50 [1] was 2 nM, the IC50 [2] was at least 1000 nM and the IC50 [3] was 4 nM.

`C[C@H](O)C(=O)N1CC[C@H](Oc2ccc(-c3ncnc(Nc4ccc(N5CCN(C6(C)COC6)CC5)cc4)n3)cc2C#N)[C@H](F)C1` [Example 312, 2-(((3R,4S)-3-fluoro-1-((S)-2-hydroxypropanoyl)piperidin-4-yl)oxy)-5-(4-((4-(4-(3-methyloxetan-3-yl)piperazin-1-yl)phenyl)amino)-1,3,5-triazin-2-yl)benzonitrile] showed an IC50 [1] of 3 nM, an IC50 [2] of 636 nM and an IC50 [3] of 3 nM.

With `C[C@H](O)C(=O)N1CC[C@H](Oc2ccc(-c3ncnc(Nc4ccc(N5CC6(CCOCC6)C5)cc4)n3)cc2C#N)[C@H](F)C1` [Example 313, 5-(4-((4-(7-oxa-2-azaspiro[3.5]nonan-2-yl)phenyl)amino)-1,3,5-triazin-2-yl)-2-(((3R,4S)-3-fluoro-1-((S)-2-hydroxypropanoyl)piperidin-4-yl)oxy)benzonitrile] the IC50 [1] was 2 nM, the IC50 [2] was 375 nM and the IC50 [3] was 4 nM.

`C[C@H](O)C(=O)N1CC[C@H](Oc2ccc(-c3ncnc(Nc4ccc(N5CCOC(C(N)=O)C5)cc4)n3)cc2C#N)[C@H](F)C1` (stereo partly drawn) [Example 314, 4-(4-((4-(3-cyano-4-(((3R,4S)-3-fluoro-1-((S)-2-hydroxypropanoyl)piperidin-4-yl)oxy)phenyl)-1,3,5-triazin-2-yl)amino)phenyl)morpholine-2-carboxamide] showed an IC50 [1] of 1 nM, an IC50 [2] of 609 nM and an IC50 [3] of 3 nM.

With `C[C@H](O)C(=O)N1CC[C@H](Oc2ccc(-c3ncnc(Nc4ccc(N5CCO[C@@H](C(N)=O)C5)cc4)n3)cc2C#N)[C@H](F)C1` [Example 315, (R)-4-(4-((4-(3-cyano-4-(((3R,4S)-3-fluoro-1-((S)-2-hydroxypropanoyl)piperidin-4-yl)oxy)phenyl)-1,3,5-triazin-2-yl)amino)phenyl)morpholine-2-carboxamide] the IC50 [1] was 3 nM, the IC50 [2] was 564 nM and the IC50 [3] was 9 nM.

Work on `C[C@H](O)C(=O)N1CC[C@H](Oc2ccc(-c3ncnc(Nc4ccc(N5CCO[C@H](C(N)=O)C5)cc4)n3)cc2C#N)[C@H](F)C1` [Example 316, (S)-4-(4-((4-(3-cyano-4-(((3R,4S)-3-fluoro-1-((S)-2-hydroxypropanoyl)piperidin-4-yl)oxy)phenyl)-1,3,5-triazin-2-yl)amino)phenyl)morpholine-2-carboxamide] yielded an IC50 [1] of 2 nM, an IC50 [2] of 347 nM and an IC50 [3] of 3 nM.

Work on `C[C@H](O)C(=O)N1CC[C@H](Oc2ccc(-c3ncnc(Nc4ccc(N5CC6COCC6C5)cc4)n3)cc2C#N)[C@H](F)C1` (stereo partly drawn) [Example 317, 2-(((3R,4S)-3-fluoro-1-((S)-2-hydroxypropanoyl)piperidin-4-yl)oxy)-5-(4-((4-(tetrahydro-1H-furo[3,4-c]pyrrol-5(3H)-yl)phenyl)amino)-1,3,5-triazin-2-yl)benzonitrile] yielded an IC50 [1] of 1 nM, an IC50 [2] of at least 1000 nM and an IC50 [3] of 2 nM.

Work on `N#Cc1cc(-c2ncnc(Nc3ccc(N4CCN(C5COC5)CC4)cc3)n2)ccc1O[C@H]1CCN(C(=O)Cc2cnn[nH]2)C[C@H]1F` [Example 319, 2-(((3R,4S)-1-(2-(1H-1,2,3-triazol-5-yl)acetyl)-3-fluoropiperidin-4-yl)oxy)-5-(4-((4-(4-(oxetan-3-yl)piperazin-1-yl)phenyl)amino)-1,3,5-triazin-2-yl)benzonitrile] yielded an IC50 [1] of 7 nM, an IC50 [2] of 102 nM and an IC50 [3] of 4 nM.

Work on `N#Cc1cc(-c2ncnc(Nc3ccc(N4CCN(C5COC5)CC4)cc3)n2)ccc1O[C@H]1CCN(C(=O)Cc2ccn[nH]2)C[C@H]1F` [Example 320, 2-(((3R,4S)-1-(2-(1H-pyrazol-5-yl)acetyl)-3-fluoropiperidin-4-yl)oxy)-5-(4-((4-(4-(oxetan-3-yl)piperazin-1-yl)phenyl)amino)-1,3,5-triazin-2-yl)benzonitrile] yielded an IC50 [1] of 40 nM, an IC50 [2] of 127 nM and an IC50 [3] of 14 nM.

With `Cc1cc(C(=O)N2CC[C@H](Oc3ccc(-c4ncnc(Nc5ccc(N6CCN(C7COC7)CC6)cc5)n4)cc3C#N)[C@H](F)C2)[nH]n1` [Example 321, 2-(((3R,4S)-3-fluoro-1-(3-methyl-1H-pyrazole-5-carbonyl)piperidin-4-yl)oxy)-5-(4-((4-(4-(oxetan-3-yl)piperazin-1-yl)phenyl)amino)-1,3,5-triazin-2-yl)benzonitrile] the IC50 [1] was 2 nM, the IC50 [2] was 164 nM and the IC50 [3] was 3 nM.

In the case of `N#Cc1cc(-c2ncnc(Nc3ccc(N4CCN(C5COC5)CC4)cc3)n2)ccc1O[C@H]1CCN(C(=O)c2[nH]ncc2Cl)C[C@H]1F` [Example 322, 2-(((3R,4S)-1-(4-chloro-1H-pyrazole-5-carbonyl)-3-fluoropiperidin-4-yl)oxy)-5-(4-((4-(4-(oxetan-3-yl)piperazin-1-yl)phenyl)amino)-1,3,5-triazin-2-yl)benzonitrile], the IC50 [1] is reported as 8 nM, the IC50 [2] is reported as 192 nM and the IC50 [3] is reported as 5 nM.

With `N#Cc1cc(-c2ncnc(Nc3ccc(N4CCN(C5COC5)CC4)cc3)n2)ccc1O[C@H]1CCN(C(=O)c2[nH]nc(N)c2Cl)C[C@H]1F` [Example 323, 2-(((3R,4S)-1-(3-amino-4-chloro-1H-pyrazole-5-carbonyl)-3-fluoropiperidin-4-yl)oxy)-5-(4-((4-(4-(oxetan-3-yl)piperazin-1-yl)phenyl)amino)-1,3,5-triazin-2-yl)benzonitrile] the IC50 [1] was 3 nM, the IC50 [2] was 75 nM and the IC50 [3] was 3 nM.

`COc1cc(Nc2ncnc(-c3ccc(O[C@H]4CCN(C(=O)[C@H](C)O)C[C@H]4F)c(C#N)c3)n2)ccc1N1CCC(N2CCOCC2)CC1` [Example 326, 2-(((3R,4S)-3-fluoro-1-((S)-2-hydroxypropanoyl)piperidin-4-yl)oxy)-5-(4-((3-methoxy-4-(4-morpholinopiperidin-1-yl)phenyl)amino)-1,3,5-triazin-2-yl)benzonitrile] gave an IC50 [1] of 1 nM, an IC50 [2] of 72 nM and an IC50 [3] of 2 nM.

`COc1cc(Nc2ncnc(-c3ccc(O[C@H]4CCN(C(=O)CC#N)C[C@H]4F)c(C#N)c3)n2)ccc1N1CCC(N2CCOCC2)CC1` [Example 327, 2-(((3R,4S)-1-(2-cyanoacetyl)-3-fluoropiperidin-4-yl)oxy)-5-(4-((3-methoxy-4-(4-morpholinopiperidin-1-yl)phenyl)amino)-1,3,5-triazin-2-yl)benzonitrile] showed an IC50 [1] of 2 nM, an IC50 [2] of 62 nM and an IC50 [3] of 4 nM.
